From ChEMBL document CHEMBL1221261, “Fluorescent retinoid X receptor ligands for fluorescence polarization assay” (Bioorg Med Chem Lett, 2010)
Active and inactive are the calls of the source. No cut-off for these calls is given here.

What was measured:
[1] = molecular target: T1, Retinoic acid receptor RXR-alpha (Homo sapiens, UniProt P19793); assay: (§1) Agonist activity at human RXRalpha expressed in […] cells by luciferase reporter gene assay; assay type: functional, cell-based, COS-7
T1 sequence (P19793 whole entry): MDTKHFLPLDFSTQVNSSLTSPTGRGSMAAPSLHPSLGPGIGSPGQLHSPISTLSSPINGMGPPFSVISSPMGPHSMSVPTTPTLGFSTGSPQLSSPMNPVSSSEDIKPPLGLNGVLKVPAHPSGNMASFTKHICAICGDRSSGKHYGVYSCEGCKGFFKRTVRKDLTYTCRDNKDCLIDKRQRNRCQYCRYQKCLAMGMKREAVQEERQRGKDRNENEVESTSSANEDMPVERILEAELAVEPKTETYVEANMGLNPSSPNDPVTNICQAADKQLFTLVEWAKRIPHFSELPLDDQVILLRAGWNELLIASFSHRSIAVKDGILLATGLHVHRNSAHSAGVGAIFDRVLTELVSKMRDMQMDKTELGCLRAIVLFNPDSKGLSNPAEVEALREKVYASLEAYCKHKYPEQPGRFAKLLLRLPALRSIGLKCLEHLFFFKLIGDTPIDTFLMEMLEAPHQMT

[2] = molecular target: T2, Retinoic acid receptor RXR-alpha (Homo sapiens) (UniProt P19793); assay: as §1; assay type: functional, cell-based; conditions: COS-7
T2 sequence (whole entry): T1 sequence (P19793 whole entry)

[3] = molecular target: T2, Retinoic acid receptor RXR-alpha (Homo sapiens); assay: Agonist activity at human RXRalpha expressed in […] cells at 1 uM by luciferase reporter gene assay; assay type: functional, cell-based; conditions: COS-7

EC50 [1] | Activity [2] | Activity [3] | Compound
1000 nM | – | – | CCN(c1ccc(C(=O)O)cn1)c1ccc2c(C(F)(F)F)cc(=O)n(CC)c2n1
1000 nM | – | – | CCN(c1ccc(C(=O)O)cn1)c1ccc2c(C(F)(F)F)cc(=O)n(C)c2n1
– | inactive | – | CCN(c1ccc(C(=O)O)cn1)c1ccc2c(C)cc(=O)n(C)c2n1
1000 nM | – | Active | CCN(c1ccc(C(=O)O)cn1)c1ccc2c(C(F)(F)F)cc(=O)n(CC(C)C)c2n1
